Assays:
Type in all cases: cell-based
[1] = biological target: T1, D-galacturonate reductase (GAAA) (Aspergillus niger, UniProt A8DRH9); test: bioconversion in engineered yeast, LC-MS/MS of L-galactonic acid; conditions: 90 μM D-GalA, pH 5.8, 30°C; endogenous NADPH; GAT-1 co-expressed; native yeast reductase background
T1 construct: codon-optimized gene, Cen6/leu2 vector with TDH3 promoter, expressed in S. cerevisiae with gat-1-GFP integrated
T1 sequence (A8DRH9 1-412): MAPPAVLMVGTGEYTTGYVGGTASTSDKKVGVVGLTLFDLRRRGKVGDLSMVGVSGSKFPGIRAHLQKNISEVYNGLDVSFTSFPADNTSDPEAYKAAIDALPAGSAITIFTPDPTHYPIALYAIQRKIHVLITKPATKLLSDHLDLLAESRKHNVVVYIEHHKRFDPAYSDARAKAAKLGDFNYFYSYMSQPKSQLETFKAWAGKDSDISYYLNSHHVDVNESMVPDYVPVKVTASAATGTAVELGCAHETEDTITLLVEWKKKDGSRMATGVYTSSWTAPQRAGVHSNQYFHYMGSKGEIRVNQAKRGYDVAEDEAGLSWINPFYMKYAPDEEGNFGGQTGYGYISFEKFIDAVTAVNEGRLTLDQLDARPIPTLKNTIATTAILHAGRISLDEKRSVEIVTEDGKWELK

[2] = biological target: T2, uronate dehydrogenase (UDH) (Agrobacterium fabrum, UniProt Q7CRQ0); test: bioconversion in engineered yeast, LC-MS/MS of meso-galactaric acid; conditions: 90 μM D-GalA, pH 5.8, 30°C; endogenous NAD+; GAT-1 co-expressed
T2 construct: open reading frame, Cen6/leu2 vector with TDH3 promoter, expressed in S. cerevisiae with gat-1-GFP integrated
T2 sequence (Q7CRQ0 1-265): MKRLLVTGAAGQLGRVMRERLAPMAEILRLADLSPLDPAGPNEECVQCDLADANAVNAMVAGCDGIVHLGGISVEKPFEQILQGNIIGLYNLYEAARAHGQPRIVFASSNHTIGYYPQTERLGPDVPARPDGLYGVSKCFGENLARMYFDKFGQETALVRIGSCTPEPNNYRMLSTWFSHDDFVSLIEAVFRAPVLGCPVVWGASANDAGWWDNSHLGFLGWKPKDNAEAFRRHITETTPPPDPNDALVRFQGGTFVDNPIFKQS

[3] = biological target: T3, quinate permease (NCU06026; quinate-Y) (Neurospora crassa, UniProt P11636); test: uptake by induced mycelia, WT versus deletion strain, MS detection; conditions: 90 μM quinic acid plus D-GalA, Vogel's salts, 25°C
T3 construct: gene qa-y; native protein in mycelia; wild type compared with deletion strain
T3 sequence (P11636 whole entry): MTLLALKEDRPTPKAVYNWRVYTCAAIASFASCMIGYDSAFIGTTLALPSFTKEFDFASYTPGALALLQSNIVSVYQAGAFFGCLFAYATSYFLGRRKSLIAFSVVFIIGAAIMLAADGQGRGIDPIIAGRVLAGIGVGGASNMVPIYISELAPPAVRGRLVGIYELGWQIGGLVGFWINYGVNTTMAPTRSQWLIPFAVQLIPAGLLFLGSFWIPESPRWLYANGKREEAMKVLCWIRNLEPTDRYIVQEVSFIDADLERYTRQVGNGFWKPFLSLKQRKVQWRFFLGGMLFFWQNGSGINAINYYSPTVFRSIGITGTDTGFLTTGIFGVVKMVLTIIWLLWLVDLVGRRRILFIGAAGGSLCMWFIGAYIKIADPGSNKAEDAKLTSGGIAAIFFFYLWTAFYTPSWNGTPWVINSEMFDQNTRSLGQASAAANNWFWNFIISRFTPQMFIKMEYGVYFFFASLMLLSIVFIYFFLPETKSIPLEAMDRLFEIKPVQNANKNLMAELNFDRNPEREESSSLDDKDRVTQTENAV

SMILES | bioconversion in engineered yeast, LC-MS/MS of L-galactonic acid [1] | bioconversion in engineered yeast, LC-MS/MS of meso-galactaric acid [2] | uptake by induced mycelia, WT versus deletion strain, MS detection [3]
O=C(O)[C@H]1OC(O)[C@H](O)[C@@H](O)[C@H]1O (stereo partly drawn) [D-GalA] | expression of the reductase resulted in a higher product yield (GAAA/GAT-1) | GalAA production was enzyme (UDH)dependent | –
O=C(O)[C@]1(O)C[C@@H](O)[C@@H](O)[C@H](O)C1 [quinic acid] | – | – | almost completely unable to take up qa, indicating that it is the only physiologically relevant transporter
